Assay results reported in article PMC6946680, “Modulation of brain cation-Cl^− cotransport via the SPAK kinase inhibitor ZT-1a” (Nature Communications, 2020).
Values joined by “and” are separate entries in the source; they are usually repeats but may differ in a detail not shown here. Identical values can stand only once. “Also recorded” adds a separate entry of the source.

Target: T1, GST–[T233E]SPAK kinase (Homo sapiens, UniProt Q9UEW8, T231E)
T1 construct: made in house; host or cells: E. coli
Experiment: SPAK kinase assay with CATCHtide and IC50 determination
Assay type: biochemical
Excerpt: II. Experimental procedures
1. Reagents and General methods
Tissue culture reagents were from Life Technologies. P81 phosphocellulose paper was from Whatman […]
and [γ-32P]-ATP was from Perkin Elmer. […] Protein G […]
sepharose was from Amersham. DNA constructs used for transfection were purified from Escherichia coli DH5α using Qiagen or Invitrogen plasmid Maxi kits according to the manufacturer's protocol. All DNA constructs were verified by DNA sequencing.
2. Plasmids, protein expression and purification
DNA clones were from the Division of Signal Transduction Therapy (University of Dundee). The SPAK proteins were expressed in E. Coli and purified as described previously 1.
3. SPAK kinase assays and IC50 determination
SPAK kinase assays employed CATCHtide (cation chloride co-transporter peptide substrate). Peptide kinase assays, performed in triplicate, were set up in a total volume of 50 μl containing 0.5 μg GST– […]
cpm/pmol) and the indicated concentrations of inhibitor dissolved in DMSO. After incubation for 30 min at 30°C, reactions were terminated by spotting 40 μl of the reaction mix onto P81 phosphocellulose paper and immersion in 50 mM phosphoric acid. The papers were washed extensively and incorporation of [γ-32P]ATP into CATCHtide was quantified by Cerenkov counting.
IC50 values were calculated with GraphPad Prism using non-linear regression analysis.
4. Fluorescence polarization […]
concentrations between 0.00001 to 1 mM. Data points are the means of three determinations, with error […]
A Supplemental Fig. 7 Effects of increasing concentrations of ZT-1a on SPAK activity in the absence […]
the absence or presence of five-fold molar excess of wild-type MO25α. b Kinetic data determined for B ZT-1a in the absence or presence of five-fold molar excess of wild-type MO25α. Data are means of […]
presence of wild-type MO25α.

## Cc1cc(C(C#N)c2ccc(Cl)cc2)c(Cl)cc1NC(=O)c1cc(Cl)ccc1O (stereo not shown) [ZT-1a, 5-chloro-N-(5-chloro-4-((4-chlorophenyl)(cyano)methyl)-2-methylphenyl)-2-hydroxybenzamide]
  change of SPAK IC50 values on addition of MO25α: not significantly altered
ATP 0.01 mM, inhibitor 1e-5 uM
  SPAK kinase activity signal (Fig S3 source data): 911 and 899 and 905
ATP 0.01 mM, inhibitor 0.0001 uM
  SPAK kinase activity signal (Fig S3 source data): 906 and 879 and 883
ATP 0.01 mM, inhibitor 0.001 uM
  SPAK kinase activity signal (Fig S3 source data): 901 and 899 and 907
ATP 0.01 mM, inhibitor 0.003 uM
  SPAK kinase activity signal (Fig S3 source data): 805
ATP 0.01 mM, inhibitor 0.03 uM
  SPAK kinase activity signal (Fig S3 source data): 855 and 847 and 825
ATP 0.01 mM, inhibitor 0.1 uM
  SPAK kinase activity signal (Fig S3 source data): 867 and 893 and 851
ATP 0.01 mM, inhibitor 0.3 uM
  SPAK kinase activity signal (Fig S3 source data): 813 and 804 and 787
ATP 0.01 mM, inhibitor 1 uM
  SPAK kinase activity signal (Fig S3 source data): 756 and 821 and 793
ATP 0.01 mM, inhibitor 3 uM
  SPAK kinase activity signal (Fig S3 source data): 663 and 688 and 705
ATP 0.01 mM, inhibitor 10 uM
  SPAK kinase activity signal (Fig S3 source data): 478 and 525 and 503
ATP 0.01 mM, inhibitor 100 uM
  SPAK kinase activity signal (Fig S3 source data): 456 and 325 and 371
ATP 0.01 mM, inhibitor 1000 uM
  SPAK kinase activity signal (Fig S3 source data): 220 and 194 and 213
ATP 0.1 mM, inhibitor 1e-5 uM
  SPAK kinase activity signal (Fig S3 source data): 902 and 887 and 849
ATP 0.1 mM, inhibitor 0.0001 uM
  SPAK kinase activity signal (Fig S3 source data): 867 and 845 and 874
ATP 0.1 mM, inhibitor 0.001 uM
  SPAK kinase activity signal (Fig S3 source data): 844 and 856 and 837
ATP 0.1 mM, inhibitor 0.03 uM
  SPAK kinase activity signal (Fig S3 source data): 798 and 815 and 804
ATP 0.1 mM, inhibitor 0.1 uM
  SPAK kinase activity signal (Fig S3 source data): 796 and 805 and 782
ATP 0.1 mM, inhibitor 0.3 uM
  SPAK kinase activity signal (Fig S3 source data): 796 and 786 and 754
ATP 0.1 mM, inhibitor 1 uM
  SPAK kinase activity signal (Fig S3 source data): 802 and 788 and 766
ATP 0.1 mM, inhibitor 3 uM
  SPAK kinase activity signal (Fig S3 source data): 706 and 686 and 718
ATP 0.1 mM, inhibitor 10 uM
  SPAK kinase activity signal (Fig S3 source data): 561 and 556 and 583
ATP 0.1 mM, inhibitor 100 uM
  SPAK kinase activity signal (Fig S3 source data): 226 and 309 and 284
ATP 0.1 mM, inhibitor 1000 uM
  SPAK kinase activity signal (Fig S3 source data): 187 and 106 and 158
ATP 1 mM, inhibitor 1e-5 uM
  SPAK kinase activity signal (Fig S3 source data): 880 and 891 and 864
ATP 1 mM, inhibitor 0.0001 uM
  SPAK kinase activity signal (Fig S3 source data): 892 and 902 and 916
ATP 1 mM, inhibitor 0.001 uM
  SPAK kinase activity signal (Fig S3 source data): 869 and 902 and 885
ATP 1 mM, inhibitor 0.03 uM
  SPAK kinase activity signal (Fig S3 source data): 812 and 786 and 753
ATP 1 mM, inhibitor 0.1 uM
  SPAK kinase activity signal (Fig S3 source data): 862 and 807 and 759
ATP 1 mM, inhibitor 0.3 uM
  SPAK kinase activity signal (Fig S3 source data): 768 and 789 and 736
ATP 1 mM, inhibitor 1 uM
  SPAK kinase activity signal (Fig S3 source data): 662 and 719 and 681
ATP 1 mM, inhibitor 3 uM
  SPAK kinase activity signal (Fig S3 source data): 641 and 604 and 563
ATP 1 mM, inhibitor 10 uM
  SPAK kinase activity signal (Fig S3 source data): 554 and 604 and 587
ATP 1 mM, inhibitor 100 uM
  SPAK kinase activity signal (Fig S3 source data): 453 and 345 and 405
ATP 1 mM, inhibitor 1000 uM
  SPAK kinase activity signal (Fig S3 source data): 222 and 164 and 186
ATP between 0.01 and 1 mM
  change of SPAK IC50 values with increasing ATP concentration: unchanged; also recorded: unaffected by changing [ATP]
SPAK + MO25, ZT-1a 1e-5 uM, Fig S7b
  ZT-1a vs SPAK+MO25, kinase activity: 401897 C.P.M and 396529 C.P.M and 387112 C.P.M
